Consider 18 molecules from publication PMC11520566, “Discovery of pyrazole-based analogs as CDK2 inhibitors with apoptotic-inducing activity: design, synthesis and molecular dynamics study” (RSC Advances, 2024).

Several values for one entry are separate records, joined by “and”; a condition that tells them apart may be missing. Identical values can stand only once.

One data set addresses T1, CDK2/cyclin A2 (Homo sapiens, UniProt P24941).
T1 construct: purchased Promega
The data set is described as follows: In vitro CDK2/cyclin A2 enzyme inhibition assay (ADP-Glo). Format: biochemical. Conditions: for percentage enzyme activity: at 50 μM; for Relative activity: supplement S1, DMSO = 100, screen at 50 μM; for IC50: n = 3, read-out: IC50 against CDK2/cyclin A2. As for the experimental part:
The studied pyrazoles 2a–g, 4, 7a–d, 8a and b, 9, and 10 were assessed for their in vitro CDK2/cyclin A2 enzyme inhibition assay at a concentration of 50 μM using the Promega CDK2/cyclinA2 kinase enzyme system coupled with the ADP-Glo assay.[32,33] The percentage enzyme activity was the lowest for five compounds, namely 4, 7a, 7d, 8a, and 9 with values of 24.7%, 17.5%, 11.5%, 27.1% and 14.5%, respectively.
The in vitro assay of CDK2/cyclin A2 protein kinase was carried out on all the synthesized compounds. The kinase assay was performed in a 96-well white plate with a reaction volume of […]. The reaction was performed in four steps as follows: 2.5 μL of the test compounds or 5% DMSO and 5 μL of CDK2/cyclin A2 enzyme (1.6 ng) was added, and then incubated at room temperature for 30 min. Then, 5 μL of 50 μM ATP. 0.1 μg μL^−1 histone H1 was added and incubated for 10 min. The reaction was stopped by adding 12.5 μL of ADP-Glo™ Reagent and incubated for 40 min. Then 25 μL of kinase detection reagent was added to each well and incubated for 60 min before detection with luminescence (Integration time 0.5–1 s).[25,32,33]

For another data set, the system named is MCF7. The data set is described as follows: NCI 60 single dose screen, Breast cancer. Format: cell-based, human. Conditions: single dose 10 μM. As for the experimental part:
(§1) The newly synthesized pyrazoles 2a–g, 7a–d, 8a and b, 9, and 10 were submitted to the National Cancer Institute (NCI) Developmental Therapeutics Program (http://www.dtp.nci.nih.gov) for assessment of their potential antiproliferative activity against a panel of NCI 60 cancer cell lines. All compounds were approved for screening against the approved 60 cancer cell lines at a single dose of 10 μM. The human cancer cell lines were derived from 9 variant cancer types including leukemia, melanoma, lung, colon, CNS, ovarian, renal, prostate and breast cancers. The results are presented as percentage of growth inhibition (GI%) of the screened compounds against the full panel of cell lines.
(§2) Under sterile conditions, the cell lines were grown in RPMI 1640 media (Gibco, NY, USA) supplemented with 10% fetal bovine serum (Biocell, CA, USA), and […] cell/mL was used to test the growth inhibition activity of the synthesized compounds. The compounds with concentrations ranging from 0.01 to 100 μM were prepared in phosphate buffer saline. Each compound was initially solubilized in dimethyl sulfoxide (DMSO); however, each final dilution contained less than 1% DMSO. Solutions of different concentrations (0.2 mL) were pipetted into the separate well of a microtiter tray in duplicate. Cell culture (1.8 mL) containing a cell population of […] cells per mL was pipetted into each well. Controls, containing only phosphate buffer saline and DMSO at identical dilutions, were also prepared in the same manner. These cultures were incubated in a humidified incubator at 37 °C. The incubator was supplied with 5% CO2 atmosphere. After 48 h, the cells in each well were diluted 10 times with saline and counted using a Coulter counter. The counts were corrected for the dilution.[34]

The subject of data set [1] is CDK 1, 2, 4, 6 and 9 isoforms. More on the design: method as in PMID 18656911. Conditions: range over CDK 1, 2, 4, 6 and 9 isoforms; cited from earlier work.
The test system of data set [2] is CDK2. The following applies: cited from earlier work; for IC50: CDK2.
The subject of another data set is MDA-MB-468. The data set is described as follows: NCI 60 single dose screen, Breast cancer. The class given is cell-based, human. The following applies: single dose 10 μM. As for the experimental part:
as §1, §2

The test system of another data set is NCI 60 cancer cell lines. Briefly: NCI 60 single dose screen, mean over full panel. Format: cell-based, human. The following applies: mean over NCI 60 cell lines; single dose 10 μM. The method, then: as §1, §2
The next data set deals with HCT-116 cell line. The data set is described as follows: MTT cell viability assay. The class given is cell-based. The following applies: Homo sapiens, read-out: IC50 (cytotoxicity, MTT).
In another data set the test system is T-47D. The data set is described as follows: NCI 60 single dose screen, Breast. The class given is cell-based, human. The following applies: single dose 10 μM. The method, then:
as §1
Under sterile conditions, the cell lines were grown in RPMI 1640 media (Gibco, NY, USA) supplemented with 10% fetal bovine serum (Biocell, CA, USA), and […] cell/mL was used to test the growth inhibition activity of the synthesized compounds. The compounds with concentrations ranging from 0.01 to 100 μM were prepared in phosphate buffer saline. Each compound was initially solubilized in dimethyl sulfoxide (DMSO); however, each final dilution contained less than 1% DMSO. Solutions of different concentrations (0.2 mL) were pipetted into the separate well of a microtiter tray in duplicate. […] After 48 h, the cells in each well were diluted 10 times with saline and counted using a Coulter counter. […]

The test system of a further data set is CCRF-CEM. The data set is described as follows: NCI 60 single dose screen, Leukemia. Conditions: single dose 10 μM. The class given is cell-based, human. The method, then: as §1, §2
Another data set deals with MALME-3M. The data set is described as follows: NCI 60 single dose screen, Melanoma. The class given is cell-based, human. The following applies: single dose 10 μM. The method, then:
as §1, §2

A further data set deals with SK-MEL-2. The data set is described as follows: NCI 60 single dose screen, Melanoma. The class given is cell-based, human. Conditions: single dose 10 μM. As for the experimental part:
as §1, §2

The nature of another data set: in vitro. Conditions: human.
In data set [3] the test system is CDK2. Briefly: Western blot of CDK2 expression in HCT-116 cells. The class given is cell-based. The following applies: 1 μM, 48 h, vs vehicle treated cells. The text has this: The method of sodium dodecyl sulfate polyacrylamide gel electrophoresis (SDS-PAGE) is employed to separate proteins based on their size. When combined with western blotting (immunoblotting), both techniques are commonly used to identify the presence and/or relative abundance of a specific protein within a sample containing a complex mixture of proteins.[36] In this process, each sample's total protein content is loaded onto a gel and separated by electrophoresis, allowing proteins to migrate through the gel matrix under the influence of an electric current. To facilitate protein migration, the proteins are initially denatured and given a negative charge by exposure to a detergent like SDS. A molecular weight marker with known-sized bands assists in identifying proteins of interest. […] Typically, the secondary antibody is linked to an enzyme that generates luminescence upon reacting with its substrate. The intensity of the luminescence, directly correlating with the amount of protein that interacted with the antibody, is captured by a Bio-Rad Imager.[36] […]
HCT-116 cells were treated with either 3 μM of compound 4 and 1 μM of compound 9 and incubated 48 h. The cells were lysed by 1× RIPA buffer containing protease and phosphatase inhibitors to quantify the protein concentration by BCA protein assay. […]
On the technique in general: Immunoblotting shows a protein as a band on a membrane.

At CDK2/cyclin A2, “4-Chloro-N-(4-cyano-3-(phenylamino)-1H-pyrazol-5-yl)benzamide [Compound 8a]” came in with a percentage enzyme activity of 27.1% and a Relative activity of 56.4.

“5-((4-Methoxybenzylidene)amino)-3-(phenylamino)-1H-pyrazole-4-carbonitrile [Compound 7c]” yielded a GI% with MCF7 of 79.41%. This molecule also registered a Relative activity at CDK2/cyclin A2 of 68.6.

Turning to `O=C(NC1CCNCC1)c1n[nH]cc1NC(=O)c1c(Cl)cccc1Cl` [AT7519 (I), N-(4-Piperidinyl)-4-(2,6dichlorobenzoylamino)-1H-pyrazole-3-carboxamide], the IC50 in [1] is […].

With `Nc1n[nH]c(N)c1/N=N/c1ccc(O)cc1` [CAN508 (III)], the IC50 with CDK2 [2] was 0.35 µM.

As a reminder, the melting point is the temperature, or range, at which the solid turns liquid. In turn, `O=C1NN=C(Nc2ccccc2)C1=NNc1ccccc1` [Compound 2a, 5-(Phenylamino)-4-(2-phenylhydrazono)-2,4-dihydro-3H-pyrazol-3-one] gave a melting point of 215 to 217 °C. The same molecule had a GI% with MCF7 of 73.8%. The Relative activity at CDK2/cyclin A2 is 51.4.

In turn, `O=C1NN=C(Nc2ccccc2)C1=NNc1ccc(F)cc1` [Compound 2b, 4-(2-(4-Fluorophenyl)hydrazono)-5-(phenylamino)-2,4-dihydro-3H-pyrazol-3-one] yielded a melting point of 239 to 240 °C. Further, the GI% in the data set on MCF7 came to 86.1%. This molecule showed a GI% in the data set with MDA-MB-468 of 72.25%. Moreover, the Relative activity at CDK2/cyclin A2 is reported as 55.6.

`O=C1NN=C(Nc2ccccc2)C1=NNc1ccc(Cl)cc1` [Compound 2c, 4-(2-(4-Chlorophenyl)hydrazono)-5-(phenylamino)-2,4-dihydro-3H-pyrazol-3-one] showed a melting point of 249 to 251 °C. In the data set with MCF7, the GI% was 77.1%. The molecule further displayed a Relative activity on CDK2/cyclin A2 of 59.3.

`O=C1NN=C(Nc2ccccc2)C1=NNc1ccc(O)cc1` [Compound 2d, 4-(2-(4-Hydroxyphenyl)hydrazono)-5-(phenylamino)-2,4-dihydro-3H-pyrazol-3-one] gave a melting point of 257 to 259 °C. Besides, the “mean GI%” value with NCI 60 cancer cell lines is on record as 27.12%. On CDK2/cyclin A2, this molecule had a Relative activity of 40.2.

Molecule `Cc1ccc(NN=C2C(=O)NN=C2Nc2ccccc2)cc1` [Compound 2e, 5-(Phenylamino)-4-(2-(p-tolyl)hydrazono)-2,4-dihydro-3H-pyrazol-3-one] had a melting point of 251 to 253 °C. Moreover, in the data set on NCI 60 cancer cell lines, the “mean GI%” value amounted to 6.87%. The same molecule registered a Relative activity at CDK2/cyclin A2 of 56.6.

As to `COc1ccc(NN=C2C(=O)NN=C2Nc2ccccc2)cc1` [Compound 2f, 4-(2-(4-Methoxyphenyl)hydrazono)-5-(phenylamino)-2,4-dihydro-3H-pyrazol-3-one], the melting point lay in the range of 240 to 242 °C. Moreover, the “mean GI%” value in the data set on NCI 60 cancer cell lines is recorded as 10.24%. The molecule further gave a Relative activity on CDK2/cyclin A2 of 62.1.

Molecule `CC(=O)c1ccc(NN=C2C(=O)NN=C2Nc2ccccc2)cc1` [Compound 2g, 4-(2-(4-Acetylphenyl)hydrazono)-5-(phenylamino)-2,4-dihydro-3H-pyrazol-3-one] gave a melting point of 265 to 267 °C. The molecule further had a Relative activity at CDK2/cyclin A2 of 59.5.

In turn, `N#Cc1c(Nc2ccccc2)n[nH]c1N=Cc1ccc(F)cc1` [Compound 7a, 5-((4-Fluorobenzylidene)amino)-3-(phenylamino)-1H-pyrazole-4-carbonitrile] displayed a melting point of 265 to 267 °C. Further, at CDK2/cyclin A2, the IC50 is 2 µM and 2.01 µM; the Relative activity is listed as 42.3.

Molecule `N#Cc1c(Nc2ccccc2)n[nH]c1N=Cc1ccc(Cl)cc1` [Compound 7b, 5-((4-Chlorobenzylidene)amino)-3-(phenylamino)-1H-pyrazole-4-carbonitrile] registered a melting point of 273 to 275 °C. In addition, the Relative activity on CDK2/cyclin A2 is 70.7.

In turn, `CN(C)c1ccc(C=Nc2[nH]nc(Nc3ccccc3)c2C#N)cc1` [Compound 7d, 5-((4-(Dimethylamino)benzylidene)amino)-3-(phenylamino)-1H-pyrazole-4-carbonitrile] returned a melting point of 284 to 285 °C. On CDK2/cyclin A2, the percentage enzyme activity is recorded as 11.5%, the IC50 came to 1.47 µM and the Relative activity amounted to 11.5.

`COc1ccc(C(=O)Nc2[nH]nc(Nc3ccccc3)c2C#N)cc1` [Compound 8b, N-(4-Cyano-3-(phenylamino)-1H-pyrazol-5-yl)-4-methoxybenzamide] showed a melting point of 233 to 235 °C. In addition, on CDK2/cyclin A2, the IC50 came to 18.7 µM and the Relative activity turned out to be 27.1.

Take `N#Cc1c(Nc2ccccc2)n[nH]c1NCc1ccccc1` [Compound 9, 5-(benzylamino)-3-(phenylamino)-1H-pyrazole-4-carbonitrile]: the melting point fell in the range of 136 to 137 °C. Also, in the data set with HCT-116 cell line, the IC50 was found to be 10 µM. In the data set with T-47D, this molecule yielded a GI% of 82.76%. This molecule registered a GI% with CCRF-CEM of 81.65%. In addition, in the data set on NCI 60 cancer cell lines, the “mean GI%” value was determined as 65.90%. Moreover, the GI% in the data set on MALME-3M came out at 78.10%. In the data set on SK-MEL-2, the GI% is listed as 79.33%. The IC50 in the data set “in vitro” stood at 56.8 µM. Further, at CDK2/cyclin A2, the percentage enzyme activity is recorded as 14.5%, the IC50 is 0.96 µM and the Relative activity was determined as 14.5. For the same molecule, the “expression of CDK-2 (western blot)” value with CDK2 [3] was “inhibitions in the expression of CDK-2”.

Regarding `CC(=O)N(C(C)=O)c1[nH]nc(Nc2ccccc2)c1C#N` [Compound 10, N-acetyl-N-(4-cyano-3-(phenylamino)-1H-pyrazol-5-yl)acetamide], the melting point lay within 173 to 175 °C. The same molecule displayed a Relative activity at CDK2/cyclin A2 of 49.9.

On to `NC(=O)c1ccc(-c2ccc(F)c(C(=O)Nc3c[nH]nc3C(=O)Nc3ccc(F)cc3)c2F)cn1` [DC-K2in212 (IV)], for which, in the data set on CDK2 [2], the IC50 was 0.295 µM and the “selectivity against CDK2 over CDK1” value is 17 fold.
